25 molecules from patent US8143394B2, “Pyrido(3,2-d)pyrimidines useful for treating viral infections” (Gilead Sciences, Inc., priority 2006, dated 2012) can be followed below.

The target of data set [1] is HCV replicon. Briefly: Anti-HCV replicon assay (EC50, luciferase readout). The format is cell-based. As to conditions: human hepatoma Huh-7 cell line harbouring a HCV replicon, 3 days, luciferase, read-out: EC50. The procedure, abridged:
(§1)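 Huh-7 cells bearing HCV replicon, 6000 per well, exposed 3 days at 37 °C to 3-fold compound dilutions (0.5% DMSO final where used). EC50 from luciferase luminescence after lysis; CC50 (50% growth inhibition) from CellTiter-Glo luminescence in parallel plates.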

In data set [2] the test system is Huh-7 HCV replicon cells. Put plainly: CC50 assay (CellTiter-Glo) in Huh-7 HCV replicon cells. The format is cell-based, human. As to conditions: 3 days, 50% cytostatic concentration. A digest of the protocol: as §1
Background: ATP-based viability assays read luminescence as a measure of living cells.

Test in data set [3]: as above
The format is cell-based, human. Particulars: human, 50% cytostatic concentration. The procedure, abridged: as §1

Read-outs that look alike come from different tables or passages of the source. Bounds are passed on as bounds.

For orientation: EC50 means the concentration giving half of the maximal effect. The term CC50 denotes the concentration giving 50% cytotoxicity. A lower CC50 goes with harm at low concentration.

With “4-ethoxy-6-(5-methyl-4H-[1,2,4]triazol-3-yl)-pyrido[3,2-d]pyrimidin-2-ylamine [Example 88]”, the EC50 in data set [1] fell in the range of 300 to 1000 nM. This molecule also came in with a CC50 in data set [2] of 10000 to 20000 nM.

`CC(C)(CN1CCCC1)NC(=O)c1ccc(-c2ccc3nc(N)nc(O[C@H]4CCOC4)c3n2)cc1` [Example 80, 4-[2-Amino-4-(tetrahydro-furan-3-yloxy)-pyrido[3,2-d]pyrimidin-6-yl]-N-(1,1-dimethyl-2-pyrrolidin-1-yl-ethyl)-benzamide]: in data set [1] (Hepatitis C virus, 72 h), the EC50 is less than 300 nM. This molecule returned a CC50 at 3 days in data set [3] of 10000 to 20000 nM.

Turning to `CC(C)Oc1nc(N)nc2ccc(-c3ccc(NC(=O)C(C)C)cc3)nc12` [Example 29, N-[4-(2-amino-4-isopropoxy-pyrido[3,2-d]pyrimidin-6-yl)-phenyl]-isobutyramide], in data set [1] (Hepatitis C virus, 72 h), the EC50 was less than 300 nM. In data set [3], this molecule came in with a CC50 at 3 days greater than 20000 nM.

`CC(C)N1CCC(NC(=O)c2ccc(-c3ccc4nc(N)nc(O[C@H]5CCOC5)c4n3)cc2)CC1` [Example 77, 4-[2-Amino-4-(tetrahydro-furan-3-yloxy)-pyrido[3,2-d]pyrimidin-6-yl]-N-(1-isopropyl-piperidin-4-yl)-benzamide]: the EC50 in data set [1] (Hepatitis C virus, 72 h) is greater than 1000 nM. This molecule also came in with a CC50 at 3 days in data set [3] greater than 20000 nM.

As to `CCOc1nc(N)nc2ccc(-c3ccc(C(=O)NC(C)(C)C)cc3)nc12` [Example 58, 4-(2-Amino-4-ethoxy-pyrido[3,2-d]pyrimidin-6-yl)-N-tert-butyl-benzamide], the EC50 in data set [1] (Hepatitis C virus, 72 h) was greater than 1000 nM. Also, in data set [3], the CC50 at 3 days is greater than 20000 nM.

As for `CS(=O)(=O)Nc1cccc(-c2ccc3nc(N)nc(O[C@@H]4CCOC4)c3n2)c1` [Example 26, N-{3-[2-Amino-4-(tetrahydro-furan-3-yloxy)-pyrido[3,2-d]pyrimidin-6-yl]-phenyl}-methanesulfonamide], the concentration for a half-maximal effect (EC50) in data set [1] (Hepatitis C virus, 72 h) is less than 300 nM. In data set [3], the CC50 at 3 days is greater than 20000 nM.

With `CCOc1nc(N)nc2ccc(-c3ccc(C(=O)NOC)cc3)nc12` [Example 60, 4-(2-Amino-4-ethoxy-pyrido[3,2-d]pyrimidin-6-yl)-N-methoxy-benzamide], the EC50 in data set [1] (Hepatitis C virus, 72 h) is greater than 1000 nM. For the same molecule, the CC50 at 3 days in data set [3] was greater than 20000 nM.

`CCOc1nc(N)nc2ccc(-c3ccc(NS(=O)(=O)CC)cc3)nc12` [Example 55, ethanesulfonic acid [4-(2-amino-4-ethoxy-pyrido[3,2-d]pyrimidin-6-yl)-phenyl]-amide]: the EC50 in data set [1] (Hepatitis C virus, 72 h) is greater than 1000 nM. In addition, the CC50 at 3 days in data set [3] was greater than 20000 nM.

With `CC(C)(N)C(=O)Nc1ccc(-c2ccc3nc(N)nc(O[C@@H]4CCOC4)c3n2)cc1` [Example 25, 2-Amino-N-{4-[2-amino-4-(tetrahydro-furan-3-yloxy)-pyrido[3,2-d]pyrimidin-6-yl]-phenyl}-2-methyl-propionamide], in data set [1] (Hepatitis C virus, 72 h), the EC50 was less than 300 nM. In addition, in data set [3], the CC50 at 3 days lay within 10000 to 20000 nM.

Turning to `CC(C)Oc1nc(N)nc2ccc(-c3ccc(C(=O)NC4CC4)c(Cl)c3)nc12` [Example 72, 4-(2-Amino-4-isopropoxy-pyrido[3,2-d]pyrimidin-6-yl)-2-chloro-N-cyclopropyl-benzamide], the EC50 in data set [1] (Hepatitis C virus, 72 h) was greater than 1000 nM. In addition, the CC50 at 3 days in data set [3] is greater than 20000 nM.

`CCC(=O)Nc1ccc(-c2ccc3nc(N)nc(N4CCS(=O)(=O)CC4)c3n2)cc1` [Example 12, N-{4-[2-Amino-4-(1,1-dioxo-1λ^6-thiomorpholin-4-yl)-pyrido[3,2-d]pyrimidin-6-yl]-phenyl}-propionamide]: the EC50 in data set [1] (Hepatitis C virus, 72 h) was less than 300 nM. The CC50 at 3 days in data set [3] was less than 10000 nM.

As for `COC(=O)Nc1ccc(-c2ccc3nc(N)nc(NCCS(C)(=O)=O)c3n2)cc1` [Example 6, {4-[2-Amino-4-(2-methanesulfonyl-ethylamino)-pyrido[3,2-d]pyrimidin-6-yl]phenyl}-carbamic acid methyl ester], the EC50 in data set [1] (Hepatitis C virus, 72 h) was 300 to 1000 nM. In data set [3], this molecule yielded a CC50 at 3 days of 10000 to 20000 nM.

`CCCCNC(=O)c1ccc(-c2ccc3nc(N)nc(OCC)c3n2)cc1` [Example 57, 4-(2-Amino-4-ethoxy-pyrido[3,2-d]pyrimidin-6-yl)-N-butyl-benzamide]: in data set [1] (Hepatitis C virus, 72 h), the EC50 lay within 300 to 1000 nM. This molecule registered a CC50 at 3 days in data set [3] greater than 20000 nM.

Take `CCOc1nc(N)nc2ccc(-c3ccc(NC(=O)C4(N)CC4)c(F)c3)nc12` [Example 30, 1-Amino-cyclopropanecarboxylic acid [4-(2-amino-4-ethoxy-pyrido[3,2-d]pyrimidin-6-yl)-2-fluoro-phenyl]-amide]: the EC50 in data set [1] (Hepatitis C virus, 72 h) is less than 300 nM. For the same molecule, the CC50 at 3 days in data set [3] is greater than 20000 nM.

As for `CCOc1nc(N)nc2ccc(-c3cccc(NS(=O)(=O)C4CCS(=O)(=O)C4)c3)nc12` (centres unmarked) [Example 51, 1,1-Dioxo-tetrahydro-1?^6-thiophene-3-sulfonic acid [3-(2-amino-4-ethoxy-pyrido[3,2-d]pyrimidin-6-yl)-phenyl]-amide], the EC50 in data set [1] (Hepatitis C virus, 72 h) is less than 300 nM. In data set [3], this molecule had a CC50 at 3 days greater than 20000 nM.

On to `CCOc1nc(N)nc2ccc(-c3ccc(C(=O)Nc4ccc(F)cc4)cc3)nc12` [Example 86, 4-(2-Amino-4-ethoxy-pyrido[3,2-d]pyrimidin-6-yl)-N-(4-fluoro-phenyl)-benzamide], for which, in data set [1] (Hepatitis C virus, 72 h), the EC50 lay in the range of 300 to 1000 nM. For the same molecule, the CC50 at 3 days in data set [3] is greater than 20000 nM.

Regarding `CCOc1nc(N)nc2ccc(-c3cccc(NS(=O)(=O)CC(F)(F)F)c3)nc12` [Example 35, 2,2,2-Trifluoro-ethanesulfonic acid [3-(2-amino-4-ethoxy-pyrido[3,2-d]pyrimidin-6-yl)-phenyl]-amide], the EC50 in data set [1] (Hepatitis C virus, 72 h) was in the range of 300 to 1000 nM. This molecule gave a CC50 at 3 days in data set [3] greater than 20000 nM.

`CS(=O)(=O)CCNc1nc(N)nc2ccc(-c3cccc(NS(C)(=O)=O)c3)nc12` [Example 3, N-{3-[2-Amino-4-(2-methanesulfonyl-ethylamino)-pyrido[3,2-d]pyrimidin-6-yl]-phenyl}-methanesulfonamide]: the concentration for a half-maximal effect (EC50) in data set [1] (Hepatitis C virus, 72 h) lay in the range of 300 to 1000 nM. In data set [3], this molecule had a CC50 at 3 days greater than 20000 nM.

As for `Nc1nc(O[C@@H]2CCOC2)c2nc(-c3ccc(NC(=O)[C@H]4CCNC4)c(F)c3)ccc2n1` [Example 22, Pyrrolidine-3-carboxylic acid {4-[2-amino-4-(tetrahydro-furan-3-yloxy)-pyrido[3,2-d]pyrimidin-6-yl]-2-fluoro-phenyl}-amide], the EC50 in data set [1] (Hepatitis C virus, 72 h) was less than 300 nM. In addition, in data set [3], the CC50 at 3 days is greater than 20000 nM.

As for `CCOc1nc(N)nc2ccc(-c3ccc(C(=O)Nc4ccccc4)cc3)nc12` [Example 87, 4-(2-Amino-4-ethoxy-pyrido[3,2-d]pyrimidin-6-yl)-N-phenyl-benzamide], in data set [1] (Hepatitis C virus, 72 h), the EC50 is greater than 1000 nM. The same molecule returned a CC50 at 3 days in data set [3] greater than 20000 nM.

Consider `CC(C)NC(=O)c1ccc(-c2ccc3nc(N)nc(OC(C)C)c3n2)cc1` [Example 69, 4-(2-Amino-4-isopropoxy-pyrido[3,2-d]pyrimidin-6-yl)-N-isopropyl-benzamide], for which the EC50 in data set [1] (Hepatitis C virus, 72 h) is less than 300 nM. This molecule also registered a CC50 at 3 days in data set [3] greater than 20000 nM.

Consider `COCCOc1nc(N)nc2ccc(-c3ccc(C(=O)NC4CC4)cc3)nc12` [Example 20, 4-[2-Amino-4-(2-methoxy-ethoxy)-pyrido[3,2-d]pyrimidin-6-yl]-N-cyclopropyl-benzamide], for which the EC50 in data set [1] (Hepatitis C virus, 72 h) was less than 300 nM. The molecule further displayed a CC50 at 3 days in data set [3] greater than 20000 nM.

As to `COCCOc1nc(N)nc2ccc(-c3ccc(NC(=O)OC)cc3)nc12` [Example 19, {4-[2-Amino-4-(2-methoxy-ethoxy)-pyrido[3,2-d]pyrimidin-6-yl]-phenyl}-carbamic acid methyl ester], the EC50 in data set [1] (Hepatitis C virus, 72 h) was in the range of 300 to 1000 nM. In data set [3], this molecule yielded a CC50 at 3 days greater than 20000 nM.

Turning to `CCOc1nc(N)nc2ccc(-c3ccc(NC(=O)C4CC4)cc3)nc12` [Example 39, Cyclopropanecarboxylic acid [4-(2-amino-4-ethoxy-pyrido[3,2-d]pyrimidin-6-yl)-phenyl]-amide], the EC50 in data set [1] (Hepatitis C virus, 72 h) is less than 300 nM. Further, in data set [3], the CC50 at 3 days was greater than 20000 nM.

`CCOc1nc(N)nc2ccc(-c3ccc(NC(=O)[C@H](C)N)c(F)c3)nc12` [Example 34, 2-Amino-N-[4-(2-amino-4-ethoxy-pyrido[3,2-d]pyrimidin-6-yl)-2-fluoro-phenyl]-propanamide]: the EC50 in data set [1] (Hepatitis C virus, 72 h) is less than 300 nM. The CC50 at 3 days in data set [3] was greater than 20000 nM.
